Data on 21 molecules can be found in patent US9487510B2, “Substituted heterocyclic acetamides as kappa opioid receptor (KOR) agonists” (Dr. Reddy's Laboratories Ltd., priority 2012, dated 2016).

What is called EC50 is the concentration giving half of the maximal effect. Low values mean higher potency in that assay, high ones lower potency in that assay. Broadly, the melting point is the temperature of the solid-liquid transition.

The target in series [1] is human KOR receptor (Homo sapiens, UniProt P41145). Kind of series: IP-One HTRF assay, potency of KOR agonists, dose-response in transiently transfected COS-7 cells. Type of series: cell-based.
Chain of human KOR receptor (P41145 whole entry): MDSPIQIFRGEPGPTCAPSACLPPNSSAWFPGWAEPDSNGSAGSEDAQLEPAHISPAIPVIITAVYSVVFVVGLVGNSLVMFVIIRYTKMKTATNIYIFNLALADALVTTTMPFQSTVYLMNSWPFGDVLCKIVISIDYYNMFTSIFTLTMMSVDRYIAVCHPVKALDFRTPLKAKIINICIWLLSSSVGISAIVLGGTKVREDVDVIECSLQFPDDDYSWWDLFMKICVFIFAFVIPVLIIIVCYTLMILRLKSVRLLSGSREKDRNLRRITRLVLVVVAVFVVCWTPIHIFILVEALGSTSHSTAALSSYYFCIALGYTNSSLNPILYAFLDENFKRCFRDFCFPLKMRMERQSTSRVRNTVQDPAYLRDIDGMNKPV

Some results are limits rather than exact numbers.

Consider `O=C(Cc1ccc2oc(=O)n(Cc3ccc(-c4nnn[nH]4)cc3)c2c1)N[C@H](CN1CC[C@H](O)C1)c1ccccc1` [Example 106, 2-(3-(4-(1H-tetrazol-5-yl)benzyl)-2-oxo-2,3-dihydrobenzo[d]oxazol-5-yl)-N-((S)-2-((S)-3-hydroxypyrrolidin-1-yl)-1-phenylethyl)acetamide], for which the melting point is 296 to 297 °C. Also, the concentration giving a half-maximal response (EC50) in series [1] was not above 50 nM. `CN(C(=O)Cc1ccc2oc(=O)n(Cc3cccc(-c4nn[nH]n4)c3)c2c1)[C@H](CN1CCC(O)C1)c1ccccc1` (stereo in doubt) [Example 103, 2-(3-(3-(2H-tetrazol-5-yl)benzyl)-2-oxo-2,3-dihydrobenzo[d]oxazol-5-yl)-N-((S)-2-((S)-3-hydroxypyrrolidin-1-yl)-1-phenylethyl)-N-methylacetamide] yielded a melting point of 123 to 125 °C. Further, the EC50 in series [1] was not above 50 nM. `N#Cc1cccc(Cn2c(=O)oc3ccc(CC(=O)N[C@H](CN4CCCC4)c4ccccc4)cc32)c1` [Example 46, (S)-2-(3-(3-cyanobenzyl)-2-oxo-2,3-dihydrobenzo[d]oxazol-5-yl)-N-(1-phenyl-2-(pyrrolidin-1-yl)ethyl)acetamide] yielded a melting point of 109 to 110 °C. The molecule further yielded an EC50 in series [1] not above 50 nM. Take `CN(C(=O)Cc1ccc2c(c1)NC(=O)C2)[C@H](CN1CC[C@H](O)C1)c1ccccc1` [Example 1, N-((S)-2-((S)-3-hydroxypyrrolidin-1-yl)-1-phenylethyl)-N-methyl-2-(2-oxoindolin-6-yl)acetamide]: the melting point lay in the range of 166 to 168 °C. For the same molecule, the concentration giving a half-maximal response (EC50) in series [1] was in the range of 51 to 100 nM. For the molecule `O=C1Cc2ccc(CC(=O)N[C@H](CN3CC[C@H](O)C3)c3ccccc3)cc2N1`, the melting point was in the range of 207 to 209 °C. `CN(C(=O)Cc1ccc2oc(=O)[nH]c2c1)[C@H](CN1CC[C@H](O)C1)C1CCCCC1` [Example 70, N-((S)-1-cyclohexyl-2-((S)-3-hydroxypyrrolidin-1-yl)ethyl)-N-methyl-2-(2-oxo-2,3dihydrobenzo[d]oxazol-5-yl)acetamide] registered a melting point of 130 to 131 °C. In addition, the EC50 in series [1] is not above 50 nM.

Regarding `O=C(Cc1ccc2ccc(=O)[nH]c2c1)N[C@H](CN1CC[C@H](O)C1)c1ccccc1`, the melting point lay within 174 to 176 °C. As to `CN(C(=O)Cc1ccc2c(c1)NC(=O)CS2)[C@H](CN1CC[C@H](O)C1)c1cccc(OCC(N)=O)c1` [Example 175, N-((S)-1-(3-(2-amino-2-oxoethoxy)phenyl)-2-((S)-3-hydroxypyrrolidin-1-yl)ethyl)-N-methyl-2-(3-oxo-3,4-dihydro-2H-benzo[b][1,4]thiazin-6-yl)acetamide], the 50% effective concentration (EC50) in series [1] was not above 50 nM. In series [1], `CN(C(=O)Cc1ccc2c(c1)NC(=O)CS2)[C@H](CN1CC[C@H](O)C1)c1cccc(C(N)=O)c1` [Example 32, 3-((S)-2-((S)-3-hydroxypyrrolidin-1-yl)-1-(N-methyl-2-(3-oxo-3,4-dihydro-2H-benzo[b][1,4]thiazin-6-yl)acetamido)ethyl)benzamide] registered a half-maximal effective concentration (EC50) not above 50 nM.

`CN(C(=O)Cc1ccc2c(c1)NC(=O)CS2)[C@H](CN1CC[C@H](O)C1)c1cccc(C#N)c1` [Example 152, N-((S)-1-(3-cyanophenyl)-2-((S)-3-hydroxypyrrolidin-1-yl)ethyl)-N-methyl-2-(3-oxo-3,4-dihydro-2H-benzo[b][1,4]thiazin-6-yl)acetamide] yielded a half-maximal effective concentration (EC50) in series [1] not above 50 nM. With `Cc1nc(-c2cccc([C@@H](CN3CC[C@H](O)C3)N(C)C(=O)Cc3ccc4c(c3)NC(=O)C4)c2)no1` [Example 35, N-((S)-2-((S)-3-hydroxypyrrolidin-1-yl)-1-(3-(5-methyl-1,2,4-oxadiazol-3-yl)phenyl)ethyl)-N-methyl-2-(2-oxoindolin-6-yl)acetamide], in series [1], the EC50 was not above 50 nM.

In the case of `CN(C(=O)Cc1ccc2c(c1)NC(=O)C2)[C@H](CN1CC[C@H](O)C1)c1cccc(-c2ncc[nH]2)c1` [Example 198, N-((S)-1-(3-(1H-imidazol-2-yl)phenyl)-2-((S)-3-hydroxypyrrolidin-1-yl)ethyl)-N-methyl-2-(2-oxoindolin-6-yl)acetamide 2,2,2-trifluoroacetate], the half-maximal effective concentration (EC50) in series [1] is not above 50 nM. For the molecule `CN(C(=O)Cc1ccc2c(c1)NC(=O)CO2)[C@H](CN1CC[C@H](O)C1)c1cccc(C#N)c1` [Example 153, N-((S)-1-(3-cyanophenyl)-2-((S)-3-hydroxypyrrolidin-1-yl)ethyl)-N-methyl-2-(3-oxo-3,4-dihydro-2H-benzo[b][1,4]oxazin-6-yl)acetamide], the EC50 in series [1] is not above 50 nM. In series [1], `CN(C(=O)Cc1ccc2c(c1)CC(=O)N2)[C@H](CN1CC[C@H](O)C1)c1cccc(OCC(=O)O)c1` [Example 169, 2-(3-((S)-2-((S)-3-hydroxypyrrolidin-1-yl)-1-(N-methyl-2-(2-oxoindolin-5-yl)acetamido)ethyl)phenoxy)acetic acid] showed an EC50 not above 50 nM. In series [1], `CCN(CC)C(=O)c1cccc([C@@H](CN2CC[C@H](O)C2)N(C)C(=O)Cc2ccc3ncc(=O)[nH]c3c2)c1` [Example 209, N,N-diethyl-3-((S)-2-((S)-3-hydroxypyrrolidin-1-yl)-1-(N-methyl-2-(3-oxo-3,4-dihydroquinoxalin-6-yl)acetamido)ethyl)benzamide 2,2,2-trifluoroacetate] came in with an EC50 not above 50 nM.

Turning to `CN(C(=O)Cc1ccc2ncc(=O)[nH]c2c1)[C@H](CN1CC[C@H](O)C1)c1cccc(C(=O)NCC(F)(F)F)c1` [Example 196, 3-((S)-2-((S)-3-hydroxypyrrolidin-1-yl)-1-(N-methyl-2-(3-oxo-3,4-dihydroquinoxalin-6-yl)acetamido)ethyl)-N-(2,2,2-trifluoroethyl)benzamide], the EC50 in series [1] was not above 50 nM. Molecule `CN(C(=O)Cc1ccc2c(c1)NC(=O)CS2(=O)=O)[C@H](CN1CC[C@H](O)C1)c1ccc(F)c(OC(F)(F)F)c1` [Example 146, 2-(1,1-dioxido-3-oxo-3,4-dihydro-2H-benzo[b][1,4]thiazin-6-yl)-N-((S)-1-(4-fluoro-3-(trifluoromethoxy)phenyl)-2-((S)-3-hydroxypyrrolidin-1-yl)ethyl)-N-methylacetamide] came in with an EC50 in series [1] not above 50 nM. Still for that read-out and setting: to `CN(C(=O)Cc1ccc2c(c1)NC(=O)C2)[C@H](CN1CC[C@H](O)C1)c1cc(F)cc(-c2nccs2)c1` [Example 43, N-((S)-1-(3-fluoro-5-(thiazol-2-yl)phenyl)-2-((S)-3-hydroxypyrrolidin-1-yl)ethyl)-N-methyl-2-(2-oxoindolin-6-yl)acetamide] belongs not above 50 nM; to `CN(C(=O)Cc1ccc2c(c1)NS(=O)(=O)C2)[C@H](CN1CC[C@H](O)C1)c1cccc(-c2ncon2)c1` [Example 186, N-((S)-1-(3-(1,2,4-oxadiazol-3-yl)phenyl)-2-((S)-3-hydroxypyrrolidin-1-yl)ethyl)-2-(2,2-dioxido-1,3-dihydrobenzo[c]isothiazol-6-yl)-N-methylacetamide], not above 50 nM; to `C#Cc1cccc([C@@H](CN2CC[C@H](O)C2)N(C)C(=O)Cc2ccc3c(c2)NC(=O)C3)c1` [Example 180, N-((S)-1-(3-ethynylphenyl)-2-((S)-3-hydroxypyrrolidin-1-yl)ethyl)-N-methyl-2-(2-oxoindolin-6-yl)acetamide], not above 50 nM. As to `CN(C(=O)Cc1ccc2c(c1)S(=O)(=O)NC2=O)[C@H](CN1CC[C@H](O)C1)c1ccccc1` [Example 8, 2-(1,1-dioxido-3-oxo-2,3-dihydrobenzo[d]isothiazol-6-yl)-N-((S)-2-((S)-3-hydroxypyrrolidin-1-yl)-1-phenylethyl)-N-methylacetamide], in series [1], the EC50 is not below 1000 nM.
